Data: ChEMBL document CHEMBL1201862, “PubChem BioAssay data set” (2004)
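Following 48 hours of exposure in 96-well plates, responses at five concentrations were used to interpolate endpoints linearly. GI50 = concentration required for 50% inhibition of growth.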 Active and inactive are the calls of the source. Rule as the data show it: active = GI50 up to about 1.1 µM and inactive = higher.

What was measured:
Experiment in all cases: NCI-60 cell line screen, 48 h
[1] = system: SF-268
[2] = system: OVCAR-5
[3] = system: SNB-75
[4] = system: SF-539
[5] = system: A498
[6] = system: HCT-15
[7] = system: SK-OV-3
[8] = system: M14
[9] = system: HL-60
[10] = system: SF-295
[11] = system: IGROV-1
[12] = system: NCI-H522
[13] = system: RXF 393
[14] = system: CCRF-CEM
[15] = system: A549
[16] = system: UO-31
[17] = system: RPMI-8226
[18] = system: UACC-257
[19] = system: SK-MEL-5
[20] = system: HOP-62

SMILES | GI50 [1] | GI50 [2] | GI50 [3] | GI50 [4] | GI50 [5] | GI50 [6] [µM] | GI50 [7] | GI50 [8] | GI50 [9] | GI50 [10] | GI50 [11] | GI50 [12] | GI50 [13] | GI50 [14] | GI50 [15] | GI50 [16] | GI50 [17] | GI50 [18] | GI50 [19] | GI50 [20]
N#CC1(C#N)C(=O)c2ccncc2C1=O | > 100 µM (inactive) | > 100 µM (inactive) | > 100 µM (inactive) | > 100 µM (inactive) | > 100 µM (inactive) | > 100 | > 100 µM (inactive) | > 100 µM (inactive) | > 100 µM (inactive) | > 100 µM (inactive) | > 100 µM (inactive) | > 100 µM (inactive) | > 100 µM (inactive) | > 100 µM (inactive) | > 100 µM (inactive) | > 100 µM (inactive) | > 100 µM (inactive) | > 100 µM (inactive) | > 100 µM (inactive) | 
CN1NC(c2ccccc2)=C(C#N)C(=O)CC1c1ccc(Br)cc1 (stereo unspecified) | 35.9 µM (inactive) | 25.5 µM (inactive) | 16.6 µM (inactive) |  | 40.4 µM (inactive) | 24.3 | 31.8 µM (inactive) | 20.9 µM (inactive) | 29 µM (inactive) | 11.9 µM (inactive) |  | 22.3 µM (inactive) | 36.6 µM (inactive) |  | 32.2 µM (inactive) |  | 37.8 µM (inactive) | 69.5 µM (inactive) | 14.2 µM (inactive) | 21.4 µM (inactive)
O=C1NC2=C(CCCC/C2=N\O)C12CCCCC2 | > 100 µM (inactive) | > 100 µM (inactive) | > 100 µM (inactive) | > 100 µM (inactive) | > 100 µM (inactive) | > 100 | > 100 µM (inactive) | > 100 µM (inactive) | 32.7 µM (inactive) | > 100 µM (inactive) | > 100 µM (inactive) |  | > 100 µM (inactive) |  | > 100 µM (inactive) | > 100 µM (inactive) |  | > 100 µM (inactive) |  | > 100 µM (inactive)
COC(=O)C12CC3CC(CC(C(=O)O)(C3)C1)C2 | > 100 µM (inactive) | > 100 µM (inactive) | > 100 µM (inactive) | > 100 µM (inactive) | > 100 µM (inactive) | > 100 | > 100 µM (inactive) | > 100 µM (inactive) | > 100 µM (inactive) | > 100 µM (inactive) | > 100 µM (inactive) | > 100 µM (inactive) |  | > 100 µM (inactive) | > 100 µM (inactive) | > 100 µM (inactive) | > 100 µM (inactive) | > 100 µM (inactive) | > 100 µM (inactive) | > 100 µM (inactive)
C=C(C)[C@@H]1CCC2=C[C@H](CC(C)=CC3=CC(C)=C(O3)[C@@H]1OC)OC2=O | 33.7 µM (inactive) | > 100 µM (inactive) | 63.5 µM (inactive) | 77.3 µM (inactive) | 53.6 µM (inactive) | > 100 |  | 41.5 µM (inactive) | > 100 µM (inactive) | 21 µM (inactive) | > 100 µM (inactive) | > 100 µM (inactive) | 23.8 µM (inactive) | > 100 µM (inactive) | > 100 µM (inactive) | > 100 µM (inactive) | > 100 µM (inactive) | > 100 µM (inactive) | > 100 µM (inactive) | 
CCOC(=O)c1ccc(N(CCOS(=O)(=O)c2ccc(C)cc2)CCOS(=O)(=O)c2ccc(C)cc2)cc1 | > 100 µM (inactive) | > 100 µM (inactive) |  | < 0.01 µM (active) | > 100 µM (inactive) | > 100 |  | > 100 µM (inactive) |  | > 100 µM (inactive) | > 100 µM (inactive) | > 100 µM (inactive) | 4.49 µM (inactive) | 2.47 µM (inactive) | 8.91 µM (inactive) | 12.8 µM (inactive) | 10 µM (inactive) | > 100 µM (inactive) | > 100 µM (inactive) | 
CCOC(=O)CC(=O)CSc1c(-c2ccccc2)c(=O)n(-c2ccccc2)c(=S)n1-c1ccccc1 | > 100 µM (inactive) | > 100 µM (inactive) | > 100 µM (inactive) | > 100 µM (inactive) | > 100 µM (inactive) | > 100 | > 100 µM (inactive) | > 100 µM (inactive) | > 100 µM (inactive) | > 100 µM (inactive) | 19.8 µM (inactive) | 69.7 µM (inactive) | > 100 µM (inactive) | 51.4 µM (inactive) | > 100 µM (inactive) | > 100 µM (inactive) |  | > 100 µM (inactive) |  | > 100 µM (inactive)
O=S(=O)(O)c1ccc(/N=N\c2ccc(/N=N/c3ccc(/C=C/c4ccc(/N=[N+](\[O-])c5ccc(/C=C/c6ccc(/N=N/c7ccc(/N=N/c8ccc(S(=O)(=O)O)cc8)c8ccccc78)cc6S(=O)(=O)O)c(S(=O)(=O)O)c5)cc4S(=O)(=O)O)c(S(=O)(=O)O)c3)c3ccccc23)cc1 | > 100 µM (inactive) | > 100 µM (inactive) | 50.7 µM (inactive) | > 84.7 µM (inactive) | > 100 µM (inactive) | > 100 | > 100 µM (inactive) |  | > 100 µM (inactive) | > 74.6 µM (inactive) | 32.3 µM (inactive) | 54.5 µM (inactive) | > 100 µM (inactive) | > 100 µM (inactive) | > 89.1 µM (inactive) | 57.4 µM (inactive) | > 100 µM (inactive) | > 100 µM (inactive) | > 100 µM (inactive) | > 100 µM (inactive)
